One may read the IC50 as the concentration that gives 50% inhibition. A low value points to greater potency in that assay.

Structures are written as SMILES.

For the assay, the target named is human Nav1.8 (Homo sapiens (Human), UniProt Q9Y5Y9). Nature of the assay: E-VIPR optical membrane potential assay with electrical stimulation. The class given is cell-based. To be noted: HEK cells expressing human Nav1.8. The text has this: Sodium channels are voltage-dependent proteins that can be activated by inducing membrane voltage changes by applying electric fields. […] The instrument comprises a microtiter plate handler, an optical system for exciting the coumarin dye while simultaneously recording the coumarin and oxonol emissions, a waveform generator, a current- or voltage-controlled amplifier, and a device for inserting electrodes in well. Under integrated computer control, this instrument passes user-programmed electrical stimulus protocols to cells within the wells of the microtiter plate.
Sequence of human Nav1.8 (Q9Y5Y9 whole entry): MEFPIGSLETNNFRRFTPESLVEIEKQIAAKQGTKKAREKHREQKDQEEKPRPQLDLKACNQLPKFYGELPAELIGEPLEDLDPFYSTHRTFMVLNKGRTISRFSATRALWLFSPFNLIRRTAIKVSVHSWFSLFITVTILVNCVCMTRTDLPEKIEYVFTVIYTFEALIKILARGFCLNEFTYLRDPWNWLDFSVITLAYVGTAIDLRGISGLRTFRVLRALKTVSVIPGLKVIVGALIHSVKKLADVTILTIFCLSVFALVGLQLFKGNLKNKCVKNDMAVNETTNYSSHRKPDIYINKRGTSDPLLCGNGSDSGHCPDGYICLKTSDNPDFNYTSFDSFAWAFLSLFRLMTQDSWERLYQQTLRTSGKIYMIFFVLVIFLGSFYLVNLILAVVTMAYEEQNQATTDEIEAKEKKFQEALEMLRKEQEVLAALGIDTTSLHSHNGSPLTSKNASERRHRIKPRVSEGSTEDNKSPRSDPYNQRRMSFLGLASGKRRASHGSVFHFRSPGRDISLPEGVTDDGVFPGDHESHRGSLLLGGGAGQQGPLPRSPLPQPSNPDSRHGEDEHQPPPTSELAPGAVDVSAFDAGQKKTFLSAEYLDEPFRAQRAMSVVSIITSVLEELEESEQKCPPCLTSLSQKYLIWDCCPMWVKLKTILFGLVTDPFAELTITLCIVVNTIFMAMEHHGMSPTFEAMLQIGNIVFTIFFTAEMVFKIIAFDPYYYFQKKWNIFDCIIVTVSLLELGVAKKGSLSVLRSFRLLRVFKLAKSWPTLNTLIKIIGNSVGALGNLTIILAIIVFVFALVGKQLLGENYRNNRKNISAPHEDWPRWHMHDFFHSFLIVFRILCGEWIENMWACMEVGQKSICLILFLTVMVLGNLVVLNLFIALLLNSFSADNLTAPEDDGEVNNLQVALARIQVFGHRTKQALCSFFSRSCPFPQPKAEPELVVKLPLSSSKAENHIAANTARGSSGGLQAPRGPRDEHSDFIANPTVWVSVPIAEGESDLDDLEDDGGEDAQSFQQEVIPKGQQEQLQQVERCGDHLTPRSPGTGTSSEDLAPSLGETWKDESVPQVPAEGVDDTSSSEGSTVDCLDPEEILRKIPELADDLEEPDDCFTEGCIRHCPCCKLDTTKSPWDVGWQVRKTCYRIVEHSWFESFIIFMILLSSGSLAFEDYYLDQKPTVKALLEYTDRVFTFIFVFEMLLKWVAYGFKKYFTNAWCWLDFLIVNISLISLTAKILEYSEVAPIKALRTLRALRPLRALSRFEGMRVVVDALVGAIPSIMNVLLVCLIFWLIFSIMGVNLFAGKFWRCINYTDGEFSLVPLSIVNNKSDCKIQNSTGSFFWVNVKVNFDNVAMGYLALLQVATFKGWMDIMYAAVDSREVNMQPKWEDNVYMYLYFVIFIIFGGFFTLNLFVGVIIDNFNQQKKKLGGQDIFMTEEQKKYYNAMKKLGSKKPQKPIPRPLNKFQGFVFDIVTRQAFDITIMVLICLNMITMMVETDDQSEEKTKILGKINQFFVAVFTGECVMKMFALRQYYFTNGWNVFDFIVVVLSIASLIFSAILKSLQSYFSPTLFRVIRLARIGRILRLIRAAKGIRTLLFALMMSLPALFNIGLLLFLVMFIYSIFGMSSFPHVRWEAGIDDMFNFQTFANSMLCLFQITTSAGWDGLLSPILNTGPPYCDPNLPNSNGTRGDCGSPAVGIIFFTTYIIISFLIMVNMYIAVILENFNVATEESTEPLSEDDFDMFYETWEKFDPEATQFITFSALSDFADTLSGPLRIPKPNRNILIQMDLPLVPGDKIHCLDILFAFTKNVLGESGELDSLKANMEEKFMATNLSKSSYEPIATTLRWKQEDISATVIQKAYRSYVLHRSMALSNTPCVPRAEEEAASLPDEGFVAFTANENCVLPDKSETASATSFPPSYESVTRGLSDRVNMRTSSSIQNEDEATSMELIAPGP
24 hours before the assay on E-VIPR, HEK cells expressing human Nav1.8 were seeded in 384-well poly-lysine coated plates at 15,000-20,000 cells per well. […] Cells were grown in vented cap flasks, in 90% humidity and 5% CO2.
To make the solution added volume of 10% Pluronic F127 stock equal to volumes of CC2-DMPE+DiSBAC6(3). The order of preparation was first mixing Pluronic and CC2-DMPE, then adding DiSBAC6(3) while vortexing, then adding Bath1+β-Cyclodextrin.
1) Pre-spotted compounds (in neat DMSO) into compound plates. […] Final compound plate volume was 80 μL (80-fold intermediate dilution from 1 μL DMSO spot; 160-fold final dilution after transfer to cell plate).
2) Prepared Hexyl Dye Solution.
3) Prepared cell plates. On the day of the assay, medium was aspirated and cells were washed three times with 100 μL of Bath1 Solution, maintaining 25 μL residual volume in each well.
4) Dispensed 25 μL per well of Hexyl Dye Solution into cell plates. Incubated for 20-35 minutes at room temp or ambient conditions.
5) Dispensed 80 μL per well of Bath1 into compound plates. Acid Yellow-17 (1 mM) was added and Potassium Chloride was altered from 4.5 to 20 mM depending on the NaV subtype and assay sensitivity.
6) Washed cell plates three times with 100 μL per well of Bath1, leaving 25 μL of residual volume. Then transferred 25 uL per well from Compound Plates to Cell Plates. Incubated for 20-35 minutes at room temp/ambient condition.
7) Read Plate on E-VIPR. […] A pre-stimulus recording was performed for 0.5 seconds to obtain the un-stimulated intensities baseline. The stimulatory waveform was followed by 0.5 seconds of post-stimulation recording to examine the relaxation to the resting state.
Data was analyzed and reported as normalized ratios of emission intensities measured in the 460 nm and 580 nm channels. The response as a function of time was reported as the ratios obtained using the following formula: […]
The data was further reduced by calculating the initial (Ri) and final (Rf) ratios. These were the average ratio values during part or all of the pre-stimulation period, and during sample points during the stimulation period. The response to the stimulus R=Rf/Ri was then calculated and reported as a function of time.
Control responses were obtained by performing assays in the presence of a compound with the desired properties (positive control), such as tetracaine, and in the absence of pharmacological agents (negative control). Responses to the negative (N) and positive (P) controls were calculated as above. The compound antagonist activity A is defined as:
[formula] where R is the ratio response of the test compound
Regarding `O=C(Nc1cc[nH]c(=O)c1)c1ccc(C(F)(F)F)cc1Oc1ccc(F)cc1Cl` [Compound 77, 2-(2-chloro-4-fluorophenoxy)-N-(2-oxo-1,2-dihydropyridin-4-yl)-4-(trifluoromethyl)benzamide], the IC50 was found to be 29 nM. With `O=C(Nc1cc[nH]c(=O)c1)c1ccc(C(F)(F)F)cc1Oc1ccc(Cl)cc1` [Compound 78, 2-(4-chlorophenoxy)-N-(2-oxo-1,2-dihydropyridin-4-yl)-4-(trifluoromethyl)benzamide], inhibition was half-maximal at 31 nM (IC50).

`O=C(Nc1cc[nH]c(=O)c1)c1ccc(C(F)(F)F)cc1Oc1ccccc1OC(F)(F)F` [Compound 80, N-(2-oxo-1,2-dihydropyridin-4-yl)-2-(2-(trifluoromethoxy)phenoxy)-4-(trifluoromethyl)benzamide] returned an IC50 of 105 nM. `COc1ccc(Oc2cc(C(F)(F)F)ccc2C(=O)Nc2cc[nH]c(=O)c2)cc1F` [Compound 81, 2-(3-fluoro-4-methoxyphenoxy)-N-(2-oxo-1,2-dihydropyridin-4-yl)-4-(trifluoromethyl)benzamide] displayed an IC50 of 26 nM.

Take `O=C(Nc1cc[nH]c(=O)c1)c1ccc(C(F)(F)F)cc1Oc1ccccc1OC(F)F` [Compound 83, 2-(2-(difluoromethoxy)phenoxy)-N-(2-oxo-1,2-dihydropyridin-4-yl)-4-(trifluoromethyl)benzamide]: the IC50 is 46 nM. In turn, `COc1ccc(Oc2cc(C(F)(F)F)ccc2C(=O)Nc2cc[nH]c(=O)c2)c(F)c1` [Compound 84, 2-(2-fluoro-4-methoxyphenoxy)-N-(2-oxo-1,2-dihydropyridin-4-yl)-4-(trifluoromethyl)benzamide] returned an IC50 of 46 nM. With `Cc1c[nH]c(=O)cc1NC(=O)c1ccc(C(F)(F)F)cc1Oc1ccc(F)cc1C` [Compound 86, 2-(4-fluoro-2-methylphenoxy)-N-(5-methyl-2-oxo-1,2-dihydropyridin-4-yl)-4-(trifluoromethyl)benzamide] the figure was 3550 nM; with `COc1c(F)cccc1Oc1cc(C(F)(F)F)ccc1C(=O)Nc1cc[nH]c(=O)c1` [Compound 87, 2-(3-fluoro-2-methoxyphenoxy)-N-(2-oxo-1,2-dihydropyridin-4-yk)-4-(trifluoromethyl)benzamide], 27 nM. With `COc1ccc(Oc2cc(C(F)(F)C(F)(F)F)ccc2C(=O)Nc2cc[nH]c(=O)c2)cc1F` [Compound 89, 2-(3-fluoro-4-methoxyphenoxy)-N-(2-oxo-1,2-dihydropyridin-4-yl)-4-(perfluoroethyl)benzamide] the figure was 16 nM; with `Cc1cc(C)c(C)c(Oc2ccc(C(F)(F)F)cc2C(=O)Nc2cc[nH]c(=O)c2)c1` [Compound 91, N-(2-oxo-1,2-dihydropyridin-4-yl)-5-(trifluoromethyl)-2-(2,3,5-trimethylphenoxy)benzamide], 420 nM. `Cc1ccc(Oc2ccc(C(F)(F)F)cc2C(=O)Nc2cc[nH]c(=O)c2)c(F)c1F` [Compound 92, 2-(2,3-difluoro-4-methylphenoxy)-N-(2-oxo-1,2-dihydropyridin-4-yl)-5-(trifluoromethyl)benzamide] came in with an IC50 of 135 nM. The result for `Cc1cc(C)c(Oc2ccc(C(F)(F)F)cc2C(=O)Nc2cc[nH]c(=O)c2)cc1C` [Compound 93, N-(2-oxo-1,2-dihydropyridin-4-yl)-5-(trifluoromethyl)-2-(2,4,5-trimethylphenoxy)benzamide] reads 1450 nM. The result for `Cc1cc(C)c(C)c(Oc2ccc(F)cc2C(=O)Nc2cc[nH]c(=O)c2)c1` [Compound 94, 5-fluoro-N-(2-oxo-1,2-dihydropyridin-4-yl)-2-(2,3,5-trimethylphenoxy)benzamide] reads 1400 nM; that for `O=C(Nc1cc[nH]c(=O)c1)c1cc(F)ccc1Oc1ccccc1` [Compound 95, 5-fluoro-N-(2-oxo-1,2-dihydropyridin-4-yl)-2-phenoxybenzamide], 3450 nM. The result for `O=C(Nc1cc[nH]c(=O)c1)c1cc(F)ccc1Oc1ccc(C2CC2)cc1` [Compound 96, 2-(4-cyclopropylphenoxy)-5-fluoro-N-(2-oxo-1,2-dihydropyridin-4-yl)benzamide] reads 400 nM.

`CC(C)(C)Oc1ccc(Oc2ccc(F)cc2C(=O)Nc2cc[nH]c(=O)c2)cc1` [Compound 97, 2-(4-(tert-butoxy)phenoxy)-5-fluoro-N-(2-oxo-1,2-dihydropyridin-4-yl)benzamide] displayed an IC50 of 745 nM. The result for `CCOc1ccc(Oc2ccc(F)cc2C(=O)Nc2cc[nH]c(=O)c2)cc1` [Compound 98, 2-(4-ethoxyphenoxy)-5-fluoro-N-(2-oxo-1,2-dihydropyridin-4-yl)benzamide] reads 300 nM; that for `CC(C)c1ccc(Oc2ccc(F)cc2C(=O)Nc2cc[nH]c(=O)c2)cc1` [Compound 99, 5-fluoro-2-(4-isopropylphenoxy)-N-(2-oxo-1,2-dihydropyridin-4-yl)benzamide], 5150 nM; that for `CCCOc1ccc(Oc2ccc(F)cc2C(=O)Nc2cc[nH]c(=O)c2)cc1` [Compound 100, 5-fluoro-N-(2-oxo-1,2-dihydropyridin-4-yl)-2-(4-propoxyphenoxy)benzamide], 155 nM. `COCCc1ccc(Oc2ccc(F)cc2C(=O)Nc2cc[nH]c(=O)c2)cc1` [Compound 102, 5-fluoro-2-(4-(2-methoxyethyl)phenoxy)-N-(2-oxo-1,2-dihydropyridin-4-yl)benzamide] yielded an IC50 of 17100 nM. The result for `COc1ccc(Oc2ccc(F)cc2C(=O)Nc2cc[nH]c(=O)c2)c(Cl)c1` [Compound 103, 2-(2-chloro-4-methoxyphenoxy)-5-fluoro-N-(2-oxo-1,2-dihydropyridin-4-yl)benzamide] reads 330 nM; that for `COc1ccc(Oc2ccc(F)cc2C(=O)Nc2cc[nH]c(=O)c2)cc1` [Compound 104, 5-fluoro-2-(4-methoxyphenoxy)-N-(2-oxo-1,2-dihydropyridin-4-yl)benzamide], 1150 nM. As to `Cc1cc(C)c(Oc2ccc(F)cc2C(=O)Nc2cc[nH]c(=O)c2)cc1C` [Compound 105, 5-fluoro-N-(2-oxo-1,2-dihydropyridin-4-yl)-2-(2,4,5-trimethylphenoxy)benzamide], the IC50 came out at 3550 nM.

For the compound `O=C(Nc1cc[nH]c(=O)c1)c1cc(F)ccc1Oc1ccc(OCC(F)(F)F)cc1` [Compound 107, 5-fluoro-N-(2-oxo-1,2-dihydropyridin-4-yl)-2-(4-(2,2,2-trifluoroethoxy)phenoxy)benzamide], the half-inhibitory concentration (IC50) is 390 nM. The result for `O=C(Nc1cc[nH]c(=O)c1)c1cc(F)ccc1Oc1ccc(OCC2CC2)cc1` [Compound 108, 2-(4-(cyclopropylmethoxy)phenoxy)-5-fluoro-N-(2-oxo-1,2-dihydropyridin-4-yl)benzamide] reads 285 nM; that for `COc1ccc(Oc2cc(C(F)(F)F)ccc2C(=O)Nc2cc[nH]c(=O)c2)c(Cl)c1F` [Compound 110, 2-(2-chloro-3-fluoro-4-methoxyphenoxy)-N-(2-oxo-1,2-dihydropyridin-4-yl)-4-(trifluoromethyl)benzamide], 890 nM; that for `Cc1cc(F)ccc1Oc1cc(C(F)(F)C(F)(F)F)ccc1C(=O)Nc1cc[nH]c(=O)c1` [Compound 112, 2-(4-fluoro-2-methylphenoxy)-N-(2-oxo-1,2-dihydropyridin-4-yl)-4-(perfluoroethyl)benzamide], 16 nM. The result for `CC(C)CCOc1cc(C(F)(F)F)ccc1C(=O)Nc1cc[nH]c(=O)c1` [Compound 116, 2-(isopentyloxy)-N-(2-oxo-1,2-dihydropyridin-4-yl)-4-(trifluoromethyl)benzamide] reads 488 nM; that for `CC(C)COc1cc(C(F)(F)F)ccc1C(=O)Nc1cc[nH]c(=O)c1` [Compound 117, 2-isobutoxy-N-(2-oxo-1,2-dihydropyridin-4-yl)-4-(trifluoromethyl)benzamide], 1140 nM. With `O=C(Nc1cc[nH]c(=O)c1)c1ccc(C(F)(F)F)cc1O[C@@H]1C[C@H]2CCC1C2` [Compound 118, 2-((2R)-bicyclo[2.2.1]heptan-2-yloxy)-N-(2-oxo-1,2-dihydropyridin-4-yl)-4-(trifluoromethyl)benzamide] the figure was 765 nM; with `CC1(COc2cc(C(F)(F)F)ccc2C(=O)Nc2cc[nH]c(=O)c2)CC1` [Compound 119], 14000 nM.

Values taken from US9051270B2, “Pyridone amides as modulators of sodium channels” (Vertex Pharmaceuticals Incorporated, priority 2013, dated 2015).
